Results on 5 compounds are retold here after patent US10220024B2, “Method of inhibiting cancer cell, method for detecting cancer cell, and system for detecting cancer cell” (CANON KABUSHIKI KAISHA, priority 2012, dated 2019).

Where two headings read alike, the source gives them in different places.

Series [1] in a line: Measurement of fluorescent property of compound (spectrofluorometer). The series is classed as physicochemical. Particulars: 5 μM DMSO solution. The procedure: The excitation wavelength and fluorescence wavelength of the compound were measured by a FL4500 spectrofluorometric measuring machine manufactured by Hitachi High-Technologies Corporation.
For series [2], the system named is K562 ALDH (+) fraction (cancer stem cells). In words: Cancer stem-cell selective inhibitory action against chronic myelocytic leukemia cells, ALDH (+) fraction, CellTiter-Glo. It counts as cell-based. To be noted: Homo sapiens, 10 μg/ml, 24 hours. As to the method:
(§1) Human chronic myelocytic leukemia cells, K562, were pre-cultured in RPMI1640 medium containing 10% FBS at 37° C. in a 5% CO2 ambient. Then, a fraction containing 80% or more of cancer stem cells was extracted by use of ALDEFLUOR reagent (manufactured by VERITAS Corporation) and FACSAria flow cytometry (manufactured by Nippon Becton, Dickinson and Company). Subsequently, Compound (5) was added to the medium so as to obtain a final concentration of 10 μg/mL and cultured at 37° C. for 24 hours in a 5% CO2 ambient. The cultured cells were analyzed for viable cell count according to CellTiter-Glo Luminescent Cell Viability Assay (manufactured by Promega KK.). As a reference, the number of cells cultured in a medium containing a 0.1% dimethylsulfoxide solution (hereinafter, simply referred to as DMSO) in place of a medium containing Compound (1), in the aforementioned operation, was used as 0.1. Note that hereinafter, an ALDEFLUOR reagent positive fraction (deemed as cancer stem cells) is represented by ALDH (+), whereas an ALDEFLUOR reagent negative fraction (not deemed as cancer stem cells) is represented by ALDH (−), in some cases.
(§2) The same operation as in Experimental Example 12 was repeated except that Compound (5) in Experimental Example 12 was changed to the compounds shown in Table 4 and final concentrations shown in Table 4 were used and viable cell counts were separately analyzed. Note that the growth rate in Examples herein is a numerical value of the number of cells obtained after culture relative to the number of cells (regarded as 0.1) grown in a medium containing 0.1% DMSO.
(§3) The same operation as in Experimental Example 12 was repeated except that Compound (5) in Experimental Example 12 was changed to Imatinib (manufactured by NOVARTIS), which is a general anticancer drug, and comparative compounds shown in Table 4 and final concentrations shown in Table 4 were used and viable cell counts were separately analyzed.
(§4) The growth suppressive effect of cancer stem cells was evaluated based on the following criteria. Note that the growth rate in Examples herein is a numerical value relative to the number of cells (regarded as 0.1) grown in a medium containing 0.1% DMSO. • A: The value of ALDH (+) is less than 0.5 (growth suppressive effect against cancer stem cells is extremely high) • B: The value of ALDH (+) is 0.5 or more and less than 0.95 (growth suppressive effect against cancer stem cells is high) • C: The value of ALDH (+) is 0.95 or more (no growth suppressive effect against cancer stem cells)
(§5) Furthermore, superiority of cancer stem cells was evaluated by comparing cancer stem cells to cancer cells based on the following criteria. ALDH (+) represents cancer stem cells; whereas ALDH (−) represents general cancer cells. • A: The value of ALDH (+)/ALDH (−) is less than 0.8 (selective inhibitory effect against cancer stem cells is extremely high) • B: The value of ALDH (+)/ALDH (−) is 0.8 or more and less than 0.95 (selective inhibitory effect against cancer stem cells is high) • C: The value of ALDH (+)/ALDH (−) is 0.95 or more (no selective inhibitory effect against cancer stem cells)

Series [3] has as its system K562 ALDH (−) fraction (general cancer cells). In words: Cancer stem-cell selective inhibitory action against chronic myelocytic leukemia cells, ALDH (−) fraction, CellTiter-Glo. It counts as cell-based, Human. Particulars: Homo sapiens, 10 μg/ml, 24 hours, relative to 0.1% DMSO, read-out: ALDH(−) (growth rate). As to the method:
as §1, §2, §3, §4, §5

Series [4] relates to Prostatic cancer cells, PC-3. The series is described as follows: Cancer cell inhibitory (growth suppressive) action against prostatic cancer cells, CellTiter-Glo viable cell count. To be noted: PC-3, 10 μg/mL, 24 hours. The series is classed as cell-based. As to the method: (§6) Prostatic cancer cells, PC-3, were pre-cultured in RPMI1640 medium containing 10% FBS at 37° C. in a 5% CO2 ambient. Thereafter, 4,000 cells were seeded per well of a 96-well plate and further cultured for 24 hours. Subsequently, Compound (11) was added to the medium so as to obtain a final concentration of 10 μg/mL and cultured at 37° C. for 24 hours in a 5% CO2 ambient. The cultured cells were analyzed for viable cell count according to CellTiter-Glo Luminescent Cell Viability Assay (manufactured by Promega KK.). As a reference, the number of cells cultured in a medium containing a 0.1% dimethylsulfoxide solution (hereinafter, simply referred to as DMSO) in place of a medium containing Compound (11), in the aforementioned operation, was used as 100.
Viable cell count was analyzed in the same manner as in Experimental Example 8 except that the compounds shown in Table 3 were used in place of Compound (11) of Experimental Example 8.
Viable cell count was analyzed in the same manner as in Experimental Example 8 except that comparative compounds 1 to 4 were used in place of Compound (11) of Experimental Example 8.
The growth rate in Examples herein is a numerical value of the number of cells obtained after culture relative to the number of cells (regarded as 100) grown in a medium containing 0.1% DMSO.
Evaluation of cancer cell inhibition against the prostatic cancer cells (PC-3) was made as follows. • A: Cancer cell growth rate is less than 20% (cancer cell inhibitory (growth suppressive) effect is extremely high) • B: Cancer cell growth rate is 20% or more and less than 50% (cancer cell inhibitory (growth suppressive) effect is high) • C: Cancer cell growth rate is 50% or more (cancer cell inhibitory (growth suppressive) effect is low)

Series [5] concerns Human pancreas cancer cells, KLM-1. In words: Cancer cell inhibitory (growth suppressive) action against pancreatic cancer cells, CellTiter-Glo viable cell count. The series is classed as cell-based. To be noted: KLM1, KLM-1, 10 μg/mL, 24 hours. As to the method: as §6, with “Observation on cancer cell inhibitory (growth suppressive) action against pancreatic cancer cells Human pancreas” for “Prostatic”, “KLM-1,” for “PC-3,”, “(1)” for “(11)”, “(1),” for “(11),”, “regarded (100%).” for “used as 100.”
Viable cell count was analyzed in the same manner as in Experimental Example 1 except that Compound (1) of Experimental Example 1 was changed to compounds shown in Table 2.
Viable cell count was analyzed in the same manner as in Experimental Example 1 except that Compound (1) was changed to comparative compounds 1 to 4.
Viable cell counts of Experimental Examples 1 to 7 and Comparative Examples 1 to 4 were analyzed to obtain growth rates.
Evaluation of cancer cell inhibition against the pancreatic cancer cells (KLM-1) (growth suppression) was made based on the following criteria. Note that the growth rate in Examples herein is a numerical value of the number of cells obtained after culture relative to the number of cells (regarded as 100) grown in a medium containing 0.1% DMSO. Evaluation of cancer cell inhibition against the pancreatic cancer cells (KLM-1) was made as follows. • A: Cancer cell growth rate is less than 20% (cancer cell inhibitory (growth suppressive) effect is extremely high) • B: Cancer cell growth rate is 20% or more and less than 50% (cancer cell inhibitory (growth suppressive) effect is high) • C: Cancer cell growth rate is 50% or more (cancer cell inhibitory (growth suppressive) effect is low)

The test system of series [6] is K562-BFP human chronic myelocytic leukemia cells transplanted to zebra young fish. In words: Cancer metastasis suppressive effect in metastatic foci of cancer cells transplanted to zebra young fish. It counts as in vivo. To be noted: metastatic foci (region within 300 to 450 μm from a transplanted tumor). From the text:
From cell strain K562-BFP, which is a strain of human chronic myelocytic leukemia cells having fluorescent protein TagBFP constantly expressed, a fraction (ALDH (+)) containing 80% or more of cancer stem cells was extracted by use of a cancer stem cell marker, ALDEFLUOR reagent (manufactured by VERITAS Corporation) and FACSAria flow cytometry (manufactured by Nippon Becton, Dickinson and Company). The ALDH (+) fraction and a ALDH (−) fraction of general cancer cells were transplanted separately to zebra young fish (MieKomachi lineage, 2 days after fertilization) and the fish were raised in a 32° C. environment. Furthermore, 24 hours after transplantation, Compound (16) was added to breeding water so as to obtain a final concentration of […] and fish were raised for two days in a 32° C. environment. Cells transplanted to the zebra young fish were observed under MZ16F fluorescent stereoscopic microscope (manufactured by Leica Microsystems) and a fluorescent image of the cells after 24 hours was photographed and then fluorescent intensity was quantified.
As a reference, the fluorescent intensity of cells, which were cultured in the same operation method as above in a medium containing a 0.1% DMSO solution in place of Compound (16), was used.
Fluorescent images were photographed in the same manner as in Experimental Example 29 except that Imatinib and Dasatinib were respectively used in place of the compound (16) in Experimental Example 29.
The inhibition rate herein was obtained according to the expression: 100×(1-F1/F0), where the fluorescent intensity of cells when a test substance was added is represented by F1, and the fluorescent intensity of cells when a reference substance (DMSO) was added is represented by F0.
The growth suppressive effect in metastatic foci (region within 300 to 450 μm from a transplanted tumor) of cancer stem cells was evaluated based on the following criteria. • A: Inhibition rate is 70 or more (growth suppressive effect against metastatic foci (region within 300 to 450 μm from a transplanted tumor) of cancer stem cells is extremely high) • B: Inhibition rate is 50 or more and less than 70 (growth suppressive effect against metastatic foci (region within 300 to 450 μm from a transplanted tumor) of cancer stem cells is high) • C: Inhibition rate is less than 50 (growth suppressive effect against metastatic foci (region within 300 to 450 μm from a transplanted tumor) of cancer stem cells is low)

[7] abbreviates: read-out: Growth suppression evaluated.
[8] abbreviates: relative to 0.1% DMSO, read-out: ALDH(+) (growth rate).
Setting [9] is: read-out: Evaluation (cancer cell growth rate).
[10] abbreviates: relative to 0.1% DMSO (100), read-out: Cancer cell growth rate (%).

Compound `CC[N+]1=C(/C=c2\s/c(=C/c3ccc4c(c3)C3CCCC3N4c3ccccc3)c(=O)n2CC(=O)O)C(C)(C)c2ccccc21` (stereo not drawn) [Compound 15] had an Excitation wavelength λex in series [1] of 568 nm. For the same compound, the Fluorescence wavelength λem in series [1] came out at 643 nm. For the same compound, the activity at 10 µg/mL in series [2] (setting [7]) is under 50%; in series [2] (setting [8]), 21%; in series [3], 26%; in series [4] (setting [9]), under 20%; in series [4] (setting [10]), 7.1%; in series [5] (setting [9]) it was under 20%. For the same compound, in series [5] (setting [10]), the activity at 10 µg/mL amounted to 9%.
For the compound `COc1ccc(N2c3ccc(/C=C4/SC(=S)N(CCC(=O)O)C4=O)cc3C3CCCC32)cc1` (stereo not drawn) [compound 3, reference compound], the activity at 10 µg/mL in series [4] (setting [9]) was at least 50%; in series [4] (setting [10]) it was 86.5%; in series [5] (setting [9]), at least 50%; in series [5] (setting [10]), 95%.
The compound `CCn1c2ccccc2c2cc(/C=c3/s/c(=C\C4=[N+](CC)c5ccccc5C4(C)C)n(CC(=O)O)c3=O)ccc21` [Compound 20] came in with an Excitation wavelength λex in series [1] of 493 nm. Also, the Fluorescence wavelength λem in series [1] came to 585 nm. Also, the activity at 10 µg/mL in series [2] (setting [7]) was under 50%; in series [2] (setting [8]), 14%; in series [3], 25%; in series [4] (setting [9]) it was under 20%; in series [4] (setting [10]), 4.8%; in series [5] (setting [9]), 20 to 50%. The activity at 10 µg/mL in series [5] (setting [10]) is 22.3%.
On to `Cc1nc(Nc2ncc(C(=O)Nc3c(C)cccc3Cl)s2)cc(N2CCN(CCO)CC2)n1` [Dasatinib], for which the “Evaluation (inhibition rate in metastatic foci)” value in series [6] (0.5 μm in breeding water) is “C (Inhibition rate is less than 50)”. Moreover, in series [6] (final concentration of 0.5 μm in breeding water, 100×(1-F1/F0) versus DMSO), the Inhibition rate was 36.
In the case of `CCC[N+]1=C(/C=C/C=C/c2ccc(N(C)C)cc2)C(C)(C)c2ccccc21` [Compound 26], the Excitation wavelength λex in series [1] is 609 nm. The compound also showed a Fluorescence wavelength λem in series [1] of 692 nm. The activity at 10 µg/mL in series [4] (setting [9]) is under 20%; in series [4] (setting [10]), 5.8%; in series [5] (setting [9]) it was under 20%; in series [5] (setting [10]), 8.9%.
